Measured values reported in patent publication US20160122407A1, “Galectin-3 Inhibitor (Gal-3M) is Associated with Additive Anti-Myeloma and Anti-Solid Tumor Effects, Decreased Osteoclastogenesis and Organ Protection when Used in Combination with Proteasome Inhibitors” (Texas Tech University System, priority 2014, published 2016).

Experiments:
5TGM1 cells [1] = assay: Cell viability assay (ViaLight Plus); type: cell-based, murine; details: Carf 10 nM, Gal3M 10 ug/ml
Experimental: Cell viability assay. 5TGM1 cells were treated for 48 hours with carfilzomib, Gal3M or the combination of these two agents, then cell viability was assessed by the ViaLight Plus Cell Proliferation and Cytotoxicity BioAssay Kit (Lonza) according to the directions of the manufacturer.

5TGM1 cells [2] = assay: Chemotaxis assay (Transwell); type: cell-based, murine
Experimental: Chemotaxis assay. 5TGM1 cells (4×10^5/well) were plated in 100 μL serum-free medium in the top chambers of 24-well Transwell™ inserts (Corning Costar, N.Y., USA) with 8-μm. Complete cell culture medium (600 μL) containing 10% FBS was added to the bottom chamber. Cells were treated for 4 hours with Gal3M (10 μg/ml), carfilzomib (10 nM) or carfilzomib plus Gal3M (same doses), and 5TGM1 cells in the lower chamber were fixed and counted.

5TGM1 cells [3] = assay: Invasion ability of 5TGM1 cells; type: cell-based, murine; details: Carf 10 nM, Gal3M 10 ug/ml
5TGM1 cells [4] = assay: 5TGM1 syngeneic mice model of MM, serum IgG2b and SP17 ELISA; type: in vivo, C57BL/KaLwRij mice
Experimental: (§1) Testing Gal3M and carfilzomib in 5TGM1 syngeneic mice model. 5TGM1 cells were washed once with PBS (Sigma-Aldrich) and counted. The suspension containing […] 5TGM1 cells was injected I.V. into 20 C57BL/KaLwRij mice, 5 non-injected mice were used as negative controls. Tumor engraftment was assessed by testing IgG2b in the sera once a week. After 14 days the injected mice were randomly divided into four groups (five mice/group). Control group #1 was injected with PBS-only, group #2 received a dose of Gal3M (100 μg/mouse), group #3 received a dose of carfilzomib (112 μg/mouse) and group #4 received a dose of carfilzomib (112 μg/mouse) plus Gal3M (100 ug/mouse). Treatment effect on tumor growth was assessed by testing IgG2b and SP17 levels in the sera. Anesthetized animals were euthanized after 28 days and a postmortem examination was conducted on the whole animals and dissected organs.
ELISA for Sp17 and IgG2b. The levels of SP17 and IgG2b in mice serum were measured by direct ELISA as follows. Flat-bottom 96-well polycarbonate plates were coated with 100 μL/well sera diluted 1:25 in carbonate coating buffer (0.1 M Na2CO3, 0.1 M NaHCO3, pH 9.5) at 4° C. overnight. Then, after blocking with PBS supplemented with 1% W/V BSA for 1 hour at RT, plates were incubated with mouse anti-mouse Sp17 or IgG2b primary antibodies (1:500 in PBS, 100 μL/well, Santa Cruz Biotechnology) for 1 hour at RT. Then, plates were washed thrice with PBS with 0.025% V/V Tween-20 (200 μL/well) and incubated at RT with anti-mouse HRP-labeled secondary antibodies (1:10,000 in PBS; Abcam, Cambridge, Mass., USA) for 1 hour. The plates were washed thrice with PBS containing 0.025% V/V Tween-20 (200 μL/well), the TMB colorimetric substrate (Thermo Fisher Scientific, Waltham, Mass., USA) was added, and after 5 minutes the absorbance was measured (0.1 s) at 450 nm on a Victor 2 multimodal microplate reader (PerkinElmer, Billerica, Mass., USA). All samples were run in triplicates.

kidney and heart = assay: Kidney and heart toxicity in 5TGM1 mice (hematoxylin/eosin, activated caspase-3 IHC); details: mouse, in vivo
Experimental: 5TGM1 cells were washed once with PBS (Sigma-Aldrich) and counted. […] Tumor engraftment was assessed by testing IgG2b in the sera once a week. After 14 days the injected mice were randomly divided into four groups (five mice/group). […] Treatment effect on tumor growth was assessed by testing IgG2b and SP17 levels in the sera. Anesthetized animals were euthanized after 28 days and a postmortem examination was conducted on the whole animals and dissected organs.
Immunohistochemistry analysis of markers of osteoclasts (anti-Cathepsin K antibody, Abcam), osteoblasts (anti-osteocalcin antibody, Abcam) and apoptosis (anti-activated caspase-3 antibody, Cell Signaling Technologies) were carried out in paraffin-embedded sections. Hearts and kidneys from treated and control mice were fixed in formalin, dehydrated in ethanol, embedded in paraffin, and then cut in 3.5 μm-thick sections. For bone sections, following formalin-fixation, decalcification with 10% EDTA (pH=8), and de-hydration in ethanol, femurs were included in paraffin, then cut in 5 μm-thick sections. […] Sections were rinsed twice in PBS+0.05% Tween-20, then endogenous peroxidase was blocked with 1% H2O2 in PBS for 15′. After rinsing three times with PBS+0.05% Tween-20 for 2′, slides were incubated with the secondary antibody (1:1000, Goat anti-Rabbit-HRP, Abcam) for 1 hour at RT. […]

[5] = tested on: Raw264.7 cells co-cultured with 5TGM1 cells; assay: 5TGM1-driven osteoclastogenesis in vitro (TRAP staining); type: cell-based, murine; details: co-culture with 5TGM1, 5 μM carfilzomib, 10 μM Gal3M, 7 days, vs control co-culture
Experimental: Osteoclast differentiation from RAW264.7 cells. For co-culture experiments Raw264.7 and 5TGM1 cells were seeded on a 6-well plate at a density of 1×10^4 cells/well (about 8×103 Raw264.7 and 2×103 […]) and cultured in presence/absence of carfilzomib, Gal3M or carfilzomib plus Gal3M. After 5-7 days cells were fixed on the culture plates with citrate-acetone solution and stained for TRAP (Sigma-Aldrich). Osteoclasts were identified and enumerated under light microscopy by the presence of ≧3 nuclei by using an Olympus microscope.

5TGM1 mice [6] = assay: Bone mass density analysis on x-ray images of 5TGM1 mice; type: in vivo; details: compared with tumor-bearing untreated mice
Experimental: as §1
Bone mass density analysis. X-ray images were taken at the euthanasia day using IVIS Lumina Series III Pre-clinical In Vivo Imaging System (Perkin Elmer, USA) and bone mass density analysis (BMD) were performed as previously described (McManus M M, 2011).

5TGM1 mice [7] = assay: IHC for osteocalcin and Cathepsin K on decalcified bones; type: in vivo
Experimental: Immunohistochemistry. Immunohistochemistry analysis of markers of osteoclasts (anti-Cathepsin K antibody, Abcam), osteoblasts (anti-osteocalcin antibody, Abcam) and apoptosis (anti-activated caspase-3 antibody, Cell Signaling Technologies) were carried out in paraffin-embedded sections. Hearts and kidneys from treated and control mice were fixed in formalin, dehydrated in ethanol, embedded in paraffin, and then cut in 3.5 μm-thick sections. For bone sections, following formalin-fixation, decalcification with 10% EDTA (pH=8), and de-hydration in ethanol, femurs were included in paraffin, then cut in 5 μm-thick sections. After deparaffinization in xylene and re-hydration (100%-95%-70%-50% ethanol scale), slides were placed 10′ in distilled water, then incubated 20′ at 98° C. in Sodium Citrate Buffer (10 mM Sodium Citrate, 0.05% Tween 20, pH 6.0). After blocking with PBS+5% V/V FBS (2 hours at room temperature), the anti Cathepsin K, steocalcin and active Caspase3 antibodies were added (diluted 1:400 in PBS+1% BSA) and allowed to incubate overnight at 4° C. Sections were rinsed twice in PBS+0.05% Tween-20, then endogenous peroxidase was blocked with 1% H2O2 in PBS for 15′. After rinsing three times with PBS+0.05% Tween-20 for 2′, slides were incubated with the secondary antibody (1:1000, Goat anti-Rabbit-HRP, Abcam) for 1 hour at RT. […]

LLC = assay: Murine lung cancer (LLC) study, measurement of tumor size; type: in vivo; details: LLC mice, treatment from 14 days after injection, Carfilzomib 112 ug and 224 ug
Experimental: Measurement of tumor size. 14 days after injection of LLC, the mice were treated with XM and Carfilzomib (112 ug and 224 ug) for two (2) consecutive days three (3) times weekly.

[8] = tested on: kidney, liver, lung, spleen, and heart; assay: Western Blot of apoptotic marker caspase-3 in organs of LLC mice; type: in vivo, mouse; details: after 36 days
Text: FIG. 14 is a Western Blot of the apoptopic marker […]-3 of cells in solid tumors with no treatment, XM alone, Carfilzomib alone, and Carfilzomib plus XM. After 36 days, the mice were sacrificed and organs collected for the Western Blot.

lung cancer (tumor) = assay: ELISA for AKAP-4 expression in tumor and lung tissue; type: in vivo, mice; details: tumor and lung tissue lysates
Text: The wells were coated with tumor and lung tissue lysates.

[9] = MM patients; cited from earlier work

For `CC(C)C[C@H](NC(=O)[C@H](CCc1ccccc1)NC(=O)CN1CCOCC1)C(=O)N[C@@H](Cc1ccccc1)C(=O)N[C@@H](CC(C)C)C(=O)[C@@]1(C)CO1` [Carfilzomib], the “growth of 5TGM1 (in words)” value (5TGM1 cells [1]) was “significantly inhibited”, the “chemotaxis of 5TGM1 (in words)” value (5TGM1 cells [2]; Carf 10 nM, Gal3M 10 ug/ml) was “significantly inhibited” and the inhibition at 0.01 µM (5TGM1 cells [2]; Mus musculus, 5TGM1 cells, 4 hours, Gal3M 10 μg/ml, carfilzomib 10 nM, read-out: inhibition of the ability of 5TGM1 cells to migrate in response to chemotactic stimuli) was 40%. For the same compound, the “invasion ability of 5TGM1 (in words)” value (5TGM1 cells [3]) was “significantly inhibited”, the “decrease in IgG2b levels” value (5TGM1 cells [4]; day 21, treated on day 14, compared to untreated MM bearing mice) was 14% and the “decrease in SP17 serum levels” value (5TGM1 cells [4]; day 28, compared to untreated mice) was 37%. The “decrease in IgG2b levels” value (5TGM1 cells [4]; day 28, treated on day 14, compared to untreated MM bearing mice) was 36%, the “histological analysis of kidney and heart: morphology and activated caspase-3” value (kidney and heart; C57BL/KaLwRij, 28 days) was “associated with changes in cellular architecture and caspase-3 activation” and the kidney toxicity (kidney and heart) was “kidney toxicity both at minimum and maximum dose”. For the same compound, the “decrease in formation of TRAP+/multinucleated Raw264.7 cells” value [5] was 55%, the “BMD increase ROI2” value (5TGM1 mice [6]; distal femur end) was 19% and the “BMD increase ROI1” value (5TGM1 mice [6]; proximal femur end) was 28%. For the same compound, the “BMD increase ROI3” value (5TGM1 mice [6]; tibia) was 12%, the “Cathepsin K-positive cells (osteoclasts marker)” value (5TGM1 mice [7]) was “decrease” and the “osteocalcin-positive cells (osteoblasts marker)” value (5TGM1 mice [7]) was “increase”. For the same compound, the “tumor growth (tumor size)” value (LLC) was “inhibited tumor growth”, the “apoptosis (caspase-3 Western Blot) in mouse organs” value [8] was “increased apoptosis” and the “effect on lung cancer (AKAP-4 ELISA)” value (lung cancer (tumor)) was “have an effect on lung cancer (tumor)”. For the same compound, the “treated patients discontinuing therapy because of renal and cardiac side effects” value [9] was “approximately 15%”.
